{"source": "paper PMC2937036", "about": "(PLoS ONE, 2010)", "key": {"[1]": {"system": "Bacillus subtilis ATCC6633", "test": "Bactericidal assay (LD99.9), B. subtilis", "assay_type": "cell-based", "details": "10 mM phosphate buffer pH 7.0 with 1% TSB, 2 h, 37°C", "procedure": "(§1) The peptides were tested for microbicidal activities against Bacillus subtilis ATCC6633, Escherichia coli ML35, and Staphylococcus aureus 42D as previously described. Suspensions of logarithmically growing test bacteria were incubated on a microtiter plate at a concentration of 10^5 colony-forming units/mL with various peptide dilutions. The medium was 100 µL of 10 mM phosphate buffer pH 7.0 supplemented with 1% (v/v) of tryptic soy broth (TSB). For later assays, human male serum was also added to a final concentration of 25%. 10 µL aliquots were collected at time 0 h and after 2 h of incubation on a rotary shaker (300 rpm) at 37°C. These were plated on blood agar plates and incubated overnight at 37°C. The Lethal Dose concentration (LD99.9) was determined, corresponding to the concentration killing >99.9% of the inoculum at 2 h. These experiments were performed in duplicate.\n(§2) For the testing of the peptides' activities in different conditions, e.g. with serum, we use the same cut-off for activity as defined for Minimum Bactericidal Concentration (MBC), i.e. a 1000-fold reduction of the inoculum. However, we designate this peptide concentration with the more general term LD99.9 which can be applied to the specified conditions of the experiments performed here."}, "[2]": {"target": "bovine serum albumin (BSA) (Bos taurus, UniProt P02769)", "sequence (P02769 25-607)": "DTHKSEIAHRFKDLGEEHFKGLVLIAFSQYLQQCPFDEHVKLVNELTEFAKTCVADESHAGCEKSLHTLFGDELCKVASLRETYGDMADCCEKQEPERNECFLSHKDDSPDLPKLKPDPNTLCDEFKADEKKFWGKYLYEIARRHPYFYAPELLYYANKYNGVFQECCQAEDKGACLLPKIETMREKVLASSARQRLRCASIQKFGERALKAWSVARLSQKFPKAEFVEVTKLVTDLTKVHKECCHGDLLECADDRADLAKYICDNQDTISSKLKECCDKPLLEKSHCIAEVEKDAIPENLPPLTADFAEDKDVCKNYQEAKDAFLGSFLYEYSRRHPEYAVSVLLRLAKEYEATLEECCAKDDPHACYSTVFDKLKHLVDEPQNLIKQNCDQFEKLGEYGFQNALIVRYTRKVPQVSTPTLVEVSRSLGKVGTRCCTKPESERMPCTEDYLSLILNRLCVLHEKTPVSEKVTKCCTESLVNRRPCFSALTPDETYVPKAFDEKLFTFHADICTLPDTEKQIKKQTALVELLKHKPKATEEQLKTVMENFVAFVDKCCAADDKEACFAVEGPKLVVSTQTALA", "test": "biochemical", "quoted_text": "The potential for interactions between various peptides and bovine and human serum albumin (BSA and HSA) were studied by microcalorimetry.\nITC experiments were performed at 25°C on a Microcal VP-ITC microcalorimeter with data analysis performed with the Microcal Origin software. The sample cell contained 0.1 mM of either BSA or HSA dissolved in 20 mM HEPES, 100 mM NaCl, pH 7.9. The syringe was loaded with 2 mM test peptide in the same buffer, and each titration point resulted from 5 µL injections following an initial 2 µL injection. Separate control experiments were also performed to account for heats of dilution/mixing."}, "[3]": {"system": "Staphylococcus aureus 42D", "test": "Bactericidal assay (LD99.9), S. aureus", "assay_type": "cell-based", "details": "10 mM phosphate buffer pH 7.0 with 1% TSB, 2 h, 37°C", "procedure": "as §1, §2"}, "Escherichia coli ML35": {"system": "Escherichia coli ML35", "test": "Bactericidal assay (LD99.9), E. coli", "assay_type": "cell-based", "details": "10 mM phosphate buffer pH 7.0 with 1% TSB, 2 h, 37°C", "procedure": "as §1, §2"}, "[4]": {"system": "Staphylococcus aureus 42D", "test": "Bactericidal assay (LD99.9), S. aureus in 25% human serum", "assay_type": "cell-based", "details": "unit not given (Table 3 uses µM)", "procedure": "In order to be able to make a direct comparison with our serum stability measurements, a few peptides were selected to be tested for antimicrobial activity in 25% human serum (Table 4). […] All LD99.9 values are higher compared to the initial assays in 10 mM sodium phosphate buffer. Contributing factors to this general loss in activity could be the increased ionic concentration, interactions with serum components such as albumin or other proteins, and peptide degradation. Both hexamers with unprotected termini, Lfc1 and Com1, are no longer active while the cyclized short peptides remained fairly antimicrobial. In human serum, Lfc5 and Lfc6 are equally anti-staphylococcal. This reflects a greater loss of activity for Lfc6, but also coincides with the lower serum stability that this peptide has compared to Lfc5 (Fig. 2C). The activities of the cyclized Com peptides were all lowered equally with a 16-fold increase in LD99.9 values compared to activities in serum-excluded media and this agrees with their similar stability profiles (Fig. 2D).\nas §1, §2"}, "in vitro": {"test": "in vitro", "details": "male, human, 25% human male serum", "procedure": "To investigate the effects of the modifications on proteolytic susceptibility, the disappearance of the intact peptides incubated in diluted human serum at 37°C was followed by RP-HPLC. […] Incubations were normally done for 9 h and, in some cases, longer.\nPeptide stabilities were assayed in diluted serum as previously described. 25% human male serum was centrifuged at 13,000 rpm for 10 min to remove lipids and the supernatant was collected and incubated at 37°C for at least 15 min. The assay was initiated upon the addition of the test peptide to the serum for a final peptide concentration of 5 µM. 200 µL aliquots of the incubations were taken for the following time points: 0, 30, 75, 120, 240, 390 and 540 min. The aliquots were mixed with 40 µL of 15% trichloroacetic acid (TCA) and incubated at 4°C for at least 15 min to precipitate serum proteins. In the case of Com5 and Com6, 5 µL of 1 M NaOH was supplemented to the TCA to prevent peptide precipitation. The supernatant was collected for each sample after centrifugation at 13,000 rpm for 10 min and stored at −20°C. These assays were performed in triplicate.\nReverse phase high performance liquid chromatography (RP-HPLC) analysis was performed with an AKTA Purifier from Amersham Biosciences (Westborough, MA) using an uRPC C2/C18 ST 4.6/100 column from Pharmacia Biotech (SanJose, CA) of the following dimensions: bed length 100 mm, i.d. 4.6 mm, 120Å. Individually thawed samples were injected through a 100 µL loop, after which a linear gradient was run from 100% solution A (0.05% trifluoroacetic acid (TFA) in filtered water) to 100% solution B (0.045% TFA in 90% acetonitrile) with a flow rate at 0.5 mL/min. The relative concentrations of the remaining soluble peptides were analyzed by the integration of the absorbance at 215 nm as a function of retention time using the Analysis module of the Unicorn software package."}}, "note": "Where a SMILES comes first, the peptide text is derived from it. Bridges are numbered along the chain shown (N, C = ends).", "data": [{"smiles": "CC(=O)N[C@H]1CSSC[C@@H](C(N)=O)NC(=O)[C@H](Cc2ccccc2)NC(=O)[C@H](CCCNC(=N)N)NC(=O)[C@H](Cc2c[nH]c3ccccc23)NC(=O)[C@H](Cc2c[nH]c3ccccc23)NC(=O)[C@H](CCCNC(=N)N)NC(=O)[C@H](CCCNC(=N)N)NC1=O", "note": "[Com7, CH3CO-CRRWWRFC-NH2] (Ac-CRRWWRFC-NH2; disulfide 1-8)", "values": [{"measurement": "99.9% Lethal Dose Concentration (LD99.9) B. subtilis", "setting": "[1]", "value": "≤0.45", "unit": "µM"}, {"measurement": "Kd", "setting": "[2]", "value": 210, "unit": "µM"}, {"measurement": "99.9% Lethal Dose Concentration (LD99.9) S. aureus", "setting": "[3]", "value": 1.9, "unit": "µM"}, {"measurement": "99.9% Lethal Dose Concentration (LD99.9) E. coli", "setting": "Escherichia coli ML35", "value": 30, "unit": "µM"}, {"measurement": "LD99.9 anti-S. aureus in 25% human serum", "setting": "[4]", "value": 30}, {"measurement": "remaining at 6.5 h, 5 µM", "setting": "in vitro", "value": "~50", "unit": "%"}]}]}
